From ChEMBL document CHEMBL1146055, “Arylphthalazines. Part 2: 1-(Isoquinolin-5-yl)-4-arylamino phthalazines as potent inhibitors of VEGF receptors I and II” (Bioorg Med Chem Lett, 2006)

Experiments:
[1] = target: Vascular endothelial growth factor receptor 2 (Homo sapiens, UniProt P35968); assay: Inhibition of VEGFR2 by HTRF assay
[2] = target: Insulin-like growth factor 1 receptor (Homo sapiens) (UniProt P08069); assay: Inhibition of IGF1R at 10 uM
[3] = target: Receptor-type tyrosine-protein kinase FLT3 (Homo sapiens) (UniProt P36888); assay: Inhibition of FLT3 at 10 uM
Chain of Receptor-type tyrosine-protein kinase FLT3 (Homo sapiens) (P36888 whole entry): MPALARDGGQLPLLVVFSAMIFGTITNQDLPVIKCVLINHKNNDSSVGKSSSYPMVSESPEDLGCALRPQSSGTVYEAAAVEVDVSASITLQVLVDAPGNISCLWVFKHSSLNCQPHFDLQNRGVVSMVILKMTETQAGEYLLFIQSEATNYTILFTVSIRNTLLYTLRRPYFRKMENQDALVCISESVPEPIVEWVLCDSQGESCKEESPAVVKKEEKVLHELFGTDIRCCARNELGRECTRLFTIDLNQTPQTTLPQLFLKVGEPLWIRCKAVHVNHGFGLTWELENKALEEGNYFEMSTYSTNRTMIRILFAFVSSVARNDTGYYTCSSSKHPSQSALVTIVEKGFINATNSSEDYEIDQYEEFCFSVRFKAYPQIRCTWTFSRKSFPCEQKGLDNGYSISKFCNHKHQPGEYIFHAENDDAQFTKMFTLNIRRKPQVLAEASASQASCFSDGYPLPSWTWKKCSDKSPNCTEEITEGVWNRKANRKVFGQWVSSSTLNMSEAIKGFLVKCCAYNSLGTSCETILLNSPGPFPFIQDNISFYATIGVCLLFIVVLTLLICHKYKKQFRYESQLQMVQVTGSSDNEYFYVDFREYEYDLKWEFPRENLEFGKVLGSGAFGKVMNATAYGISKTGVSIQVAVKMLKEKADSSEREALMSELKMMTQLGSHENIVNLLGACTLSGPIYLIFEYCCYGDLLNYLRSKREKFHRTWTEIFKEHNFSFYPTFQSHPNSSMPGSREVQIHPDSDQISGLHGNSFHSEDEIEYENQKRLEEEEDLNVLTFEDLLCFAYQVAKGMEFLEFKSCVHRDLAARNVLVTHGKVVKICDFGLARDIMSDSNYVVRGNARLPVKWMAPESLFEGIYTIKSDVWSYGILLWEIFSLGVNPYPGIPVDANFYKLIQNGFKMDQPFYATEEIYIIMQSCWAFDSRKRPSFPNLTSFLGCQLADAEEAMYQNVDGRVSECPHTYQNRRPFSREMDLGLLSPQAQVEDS

[4] = target: Hepatocyte growth factor receptor (Homo sapiens) (UniProt P08581); assay: Inhibition of c-Met at 10 uM
Chain of Hepatocyte growth factor receptor (Homo sapiens) (P08581 whole entry): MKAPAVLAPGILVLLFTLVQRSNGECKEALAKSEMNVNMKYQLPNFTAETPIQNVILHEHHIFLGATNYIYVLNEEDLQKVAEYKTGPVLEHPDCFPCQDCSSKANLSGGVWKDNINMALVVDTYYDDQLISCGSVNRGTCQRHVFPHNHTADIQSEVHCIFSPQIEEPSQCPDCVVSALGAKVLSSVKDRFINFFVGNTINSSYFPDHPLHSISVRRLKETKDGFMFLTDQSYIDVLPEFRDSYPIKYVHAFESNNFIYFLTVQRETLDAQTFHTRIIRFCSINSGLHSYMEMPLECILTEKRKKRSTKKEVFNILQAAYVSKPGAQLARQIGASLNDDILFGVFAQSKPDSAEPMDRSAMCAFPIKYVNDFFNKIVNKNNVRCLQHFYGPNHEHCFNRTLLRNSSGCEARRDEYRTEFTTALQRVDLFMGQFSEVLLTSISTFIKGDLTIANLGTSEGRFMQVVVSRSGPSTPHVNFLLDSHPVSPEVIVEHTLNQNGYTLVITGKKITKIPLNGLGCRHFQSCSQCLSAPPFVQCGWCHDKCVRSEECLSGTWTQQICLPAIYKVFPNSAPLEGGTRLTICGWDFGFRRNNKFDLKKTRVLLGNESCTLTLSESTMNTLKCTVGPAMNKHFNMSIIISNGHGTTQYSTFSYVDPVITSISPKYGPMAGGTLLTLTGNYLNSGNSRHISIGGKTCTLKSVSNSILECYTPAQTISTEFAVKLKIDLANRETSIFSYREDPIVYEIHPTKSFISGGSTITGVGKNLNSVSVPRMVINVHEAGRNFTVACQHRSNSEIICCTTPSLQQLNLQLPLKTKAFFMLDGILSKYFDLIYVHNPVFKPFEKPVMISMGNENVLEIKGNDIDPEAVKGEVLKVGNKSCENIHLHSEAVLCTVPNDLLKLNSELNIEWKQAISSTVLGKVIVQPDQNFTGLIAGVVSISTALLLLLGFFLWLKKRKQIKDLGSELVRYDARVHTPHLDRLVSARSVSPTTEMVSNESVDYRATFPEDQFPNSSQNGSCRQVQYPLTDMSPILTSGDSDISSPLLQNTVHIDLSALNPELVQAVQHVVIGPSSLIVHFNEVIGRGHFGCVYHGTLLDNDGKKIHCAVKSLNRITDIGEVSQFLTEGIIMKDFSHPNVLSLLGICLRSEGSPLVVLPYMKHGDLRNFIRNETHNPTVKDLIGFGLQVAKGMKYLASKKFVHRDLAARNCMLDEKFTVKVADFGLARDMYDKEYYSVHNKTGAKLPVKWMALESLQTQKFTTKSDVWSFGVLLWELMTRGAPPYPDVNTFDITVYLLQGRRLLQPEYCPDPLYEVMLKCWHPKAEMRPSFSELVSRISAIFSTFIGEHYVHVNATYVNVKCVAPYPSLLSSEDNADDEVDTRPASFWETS

[5] = target: Insulin receptor (Homo sapiens) (UniProt P06213); assay: Inhibition of InsR at 10 uM
[6] = target: Epidermal growth factor receptor (Homo sapiens) (UniProt P00533); settings: 10 uM
Chain of Epidermal growth factor receptor (Homo sapiens) (P00533 whole entry): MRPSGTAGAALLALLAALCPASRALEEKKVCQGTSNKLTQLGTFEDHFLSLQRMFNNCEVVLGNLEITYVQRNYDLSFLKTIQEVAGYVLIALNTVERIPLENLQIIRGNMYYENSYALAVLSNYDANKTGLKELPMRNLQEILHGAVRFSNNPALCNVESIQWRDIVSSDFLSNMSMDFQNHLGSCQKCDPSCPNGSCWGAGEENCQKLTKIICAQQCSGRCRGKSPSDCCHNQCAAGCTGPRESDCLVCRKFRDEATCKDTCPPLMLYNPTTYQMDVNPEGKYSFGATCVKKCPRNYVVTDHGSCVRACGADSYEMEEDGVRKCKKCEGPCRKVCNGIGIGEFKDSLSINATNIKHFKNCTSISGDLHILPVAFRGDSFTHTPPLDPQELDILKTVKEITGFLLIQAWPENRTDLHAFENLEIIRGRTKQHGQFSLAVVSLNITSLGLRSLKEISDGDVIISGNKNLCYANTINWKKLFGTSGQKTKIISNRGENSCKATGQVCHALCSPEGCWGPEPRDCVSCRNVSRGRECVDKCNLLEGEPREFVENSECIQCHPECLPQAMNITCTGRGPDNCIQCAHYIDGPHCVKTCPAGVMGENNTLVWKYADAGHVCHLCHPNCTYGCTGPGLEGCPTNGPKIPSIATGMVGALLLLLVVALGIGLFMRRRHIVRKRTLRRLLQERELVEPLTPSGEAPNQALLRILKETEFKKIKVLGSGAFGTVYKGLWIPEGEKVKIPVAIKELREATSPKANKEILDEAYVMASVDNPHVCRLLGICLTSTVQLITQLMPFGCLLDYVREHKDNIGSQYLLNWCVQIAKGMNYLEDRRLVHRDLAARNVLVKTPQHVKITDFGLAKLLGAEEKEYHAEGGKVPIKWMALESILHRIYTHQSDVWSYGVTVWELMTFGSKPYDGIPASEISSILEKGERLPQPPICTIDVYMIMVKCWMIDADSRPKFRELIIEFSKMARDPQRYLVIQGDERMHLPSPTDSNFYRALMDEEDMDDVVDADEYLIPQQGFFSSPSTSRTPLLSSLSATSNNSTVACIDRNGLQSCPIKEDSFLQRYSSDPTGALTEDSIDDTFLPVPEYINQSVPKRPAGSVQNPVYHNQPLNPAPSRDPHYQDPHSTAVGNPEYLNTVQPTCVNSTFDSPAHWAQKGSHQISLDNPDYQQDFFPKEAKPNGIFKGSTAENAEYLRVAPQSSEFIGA
Description: Inhibition of EGFR at 10 uM

Chain of Vascular endothelial growth factor receptor 2 (P35968 whole entry): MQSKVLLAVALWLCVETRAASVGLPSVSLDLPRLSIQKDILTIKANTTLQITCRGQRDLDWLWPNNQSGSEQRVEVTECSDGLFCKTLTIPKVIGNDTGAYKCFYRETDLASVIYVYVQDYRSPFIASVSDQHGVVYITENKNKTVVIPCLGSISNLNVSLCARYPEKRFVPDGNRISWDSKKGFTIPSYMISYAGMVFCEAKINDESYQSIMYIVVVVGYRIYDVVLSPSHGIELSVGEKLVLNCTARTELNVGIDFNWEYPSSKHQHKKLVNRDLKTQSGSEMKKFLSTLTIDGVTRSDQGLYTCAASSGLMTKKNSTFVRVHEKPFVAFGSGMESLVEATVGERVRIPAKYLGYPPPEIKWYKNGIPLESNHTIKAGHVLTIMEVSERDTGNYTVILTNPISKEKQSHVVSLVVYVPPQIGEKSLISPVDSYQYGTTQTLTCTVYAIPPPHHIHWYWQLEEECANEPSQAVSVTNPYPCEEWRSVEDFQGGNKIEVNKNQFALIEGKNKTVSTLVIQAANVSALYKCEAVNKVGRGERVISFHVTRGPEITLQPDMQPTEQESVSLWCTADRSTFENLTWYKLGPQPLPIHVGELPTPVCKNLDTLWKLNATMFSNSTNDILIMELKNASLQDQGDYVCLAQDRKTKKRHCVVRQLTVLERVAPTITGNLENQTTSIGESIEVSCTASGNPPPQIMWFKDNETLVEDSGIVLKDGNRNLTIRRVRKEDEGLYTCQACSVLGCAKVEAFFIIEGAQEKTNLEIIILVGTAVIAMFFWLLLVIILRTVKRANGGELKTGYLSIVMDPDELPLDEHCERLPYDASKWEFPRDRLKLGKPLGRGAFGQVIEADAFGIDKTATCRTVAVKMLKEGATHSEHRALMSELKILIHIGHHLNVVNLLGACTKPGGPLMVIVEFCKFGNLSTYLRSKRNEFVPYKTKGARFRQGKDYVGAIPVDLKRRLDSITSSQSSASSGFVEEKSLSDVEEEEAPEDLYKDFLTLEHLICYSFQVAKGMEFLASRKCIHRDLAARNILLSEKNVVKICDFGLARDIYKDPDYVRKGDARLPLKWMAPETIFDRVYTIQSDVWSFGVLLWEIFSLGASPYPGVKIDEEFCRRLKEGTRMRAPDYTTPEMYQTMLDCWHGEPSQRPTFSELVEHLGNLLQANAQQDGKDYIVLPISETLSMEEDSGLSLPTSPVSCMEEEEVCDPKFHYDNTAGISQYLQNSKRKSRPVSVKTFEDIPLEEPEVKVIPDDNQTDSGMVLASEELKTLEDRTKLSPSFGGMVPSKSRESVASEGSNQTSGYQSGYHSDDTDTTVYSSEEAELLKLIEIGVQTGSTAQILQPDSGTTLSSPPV

## Clc1ccc(Nc2nnc(-c3cn[nH]c3)c3ccccc23)cc1
[1]
  IC50: > 10 µM

## Clc1ccc(Nc2nnc(-c3cccc4cnccc34)c3ccccc23)cc1
[2]
  inhibition: 25%
[3]
  inhibition: 33%
[4]
  inhibition: 2%
[5]
  inhibition: 10%
[6]
  inhibition: 13%
[1]
  IC50: 0.048 µM

## Cn1cc(-c2nnc(Nc3ccc(Cl)cc3)c3ccccc23)cn1
[1]
  IC50: > 10 µM
